# Laboratory results: US9274101B2 (BIOLOG, Inc., priority 2001, dated 2016)
# What was measured:
# [1] = test system: Staphylococcus aureus (ATCC #29213); test: MIC determination in MICROPLATE testing plates, saline vs GELRITE inoculant; type: cell-based; settings: ATCC29213, 18 h, SF-P plates with resazurin, 35° C.
# Procedure: All three antimicrobials were obtained from Sigma. […] Kanamycin and tetracycline were dissolved in sterile water.
# E. coli MG1655 = test: PM kinetic profiles of antimicrobials, S-O-R scoring and dendrogram; type: cell-based, Escherichia coli; settings: 1× level of each antimicrobial, 7 PMs, 48 hours
# [2] = test system: Escherichia coli (ATCC#25922); settings: cited from earlier work
# [3] = test system: Staphylococcus aureus (ATCC #29213); settings: cited from earlier work
# HL-60 cells [4] = test: Effect of 1 mM chloramphenicol on HL-60 energy utilization; type: cell-based, human; settings: 1 mM chloramphenicol
# Procedure: In this Example, methods for testing antimicrobial-induced modulation in growth of a cell are described. The antimicrobial selected for this Example is chloramphenicol. However, this application is not intended to be limited to the use of chloramphenicol, translation inhibitors or even antibiotics. HL-60 cells were cultured as described in Example 27.
# After washing, HL-60 cells were resuspended in DME-R. An aliquot of the cell suspension was counted by trypan blue exclusion and the cell density was adjusted to 6.67×10^5[…]. Fifty μL of DME-R containing 3 mM chloramphenicol were added to each well of the appropriate number of half area, 96-well plates, followed by 25 μL of the appropriate dilution of each test energy source. Stocks of 133 mM of each test chemical were prepared in tissue culture grade water, sterile filtered, and dilutions were prepared in a master plate so that, upon dilution in a total volume of 150 μL, the final concentrations would be 0.033 to 20 mM. Negative control wells received 25 μL of tissue culture grade water. The cells were plated at a volume of 75 μL/well, giving a final cell density of 5×10^4/well. For each plate containing energy sources and cells, a second, control plate containing only energy sources was prepared. Plates were incubated at 5% CO2, 90-100% humidity, and 37° C. for 24 hours prior to addition of the MTS/MPMS colorimetric reagent (7.5 μL/well). The color formed in each well 24 hours after addition of the colorimetric reagent, was measured with a plate reader at 490 nm with a reference wavelength of 650 nm. OD values from the control plate were subtracted from the OD values obtained with cells prior to normalizing the data to % negative control.
# Data shown in Table 25 are expressed as percent negative control without chloramphenicol. […] Chloramphenicol clearly has a different effect on the cells than citrate shown in Example 33.
# HL-60 cells [5] = test: Chloramphenicol IC50 for cells in complete medium; type: cell-based; settings: Homo sapiens, read-out: IC50 concentration
# E. coli (MG1655) = test: Sensitivity in ES1, ES2, ES3 MICROPLATE panels in the presence of vancomycin or sulfamethoxazole (synergy/antagonism); type: cell-based, Escherichia coli
# [6] = test system: vancomycin-intermediate S. aureus isolates (VISA); settings: cited from earlier work
MIC ([1]; diluent GELRITE (0.4%)) [µg/mL],MIC ([1]; diluent Saline) [µg/mL],IC50 (HL-60 cells [5]) [µM],Compound,position in dendrogram of PM response profiles (FIG. 9) (E. coli MG1655),"MIC, NCCLS Expected Result [2] [µg/mL]","MIC, NCCLS Expected Results [3] [µg/mL]",effect on signal compared to untreated cells (HL-60 cells [4]),change of sensitivity to the panel compound (E. coli (MG1655)),minimum inhibitory concentration [MIC] [6] [µg/mL]
1 to 2,1 to 4,–,"CC1(C)S[C@@H]2[C@H](NC(=O)[C@H](N)c3ccccc3)C(=O)N2[C@H]1C(=O)O [Ampicillin, ampicillin]",cluster,2 to 8,0.25 to 1,–,–,–
–,–,1000,O=C(N[C@H](CO)[C@H](O)c1ccc([N+](=O)[O-])cc1)C(Cl)Cl [chloramphenicol],cluster,–,–,severe reduction in signal in almost all conditions,–,–
–,–,–,CN[C@H](CC(C)C)C(=O)N[C@H]1C(=O)N[C@@H](CC(N)=O)C(=O)N[C@H]2C(=O)N[C@H]3C(=O)N[C@H](C(=O)N[C@H](C(=O)O)c4cc(O)cc(O)c4-c4cc3ccc4O)[C@H](O)c3ccc(c(Cl)c3)Oc3cc2cc(c3O[C@@H]2O[C@H](CO)[C@@H](O)[C@H](O)[C@H]2O[C@H]2C[C@](C)(N)[C@H](O)[C@H](C)O2)Oc2ccc(cc2Cl)[C@H]1O [vancomycin],–,–,–,–,transient increased sensitivity,8 to 16
